Assay results as given in patent US11034718B2, “C-3 novel triterpenone with C-17 reverse amide derivatives as HIV inhibitors” (HETERO LABS LIMITED, priority 2015, dated 2021).
pIC50: −log10 of the molar value. Where a name gives a salt, the structure may show the parent alone. Read-outs that look alike come from different tables or passages of the source.

Test system: HIV-1 strain 92HT599
Test: Antiviral activity against HIV-1 strain 92HT599 in MT2 cells (p24 estimation)
Type: cell-based
Details: HIV-1 92HT599, ~96 hours
Experimental: Example 77: Evaluation of Compounds Antiviral Activity Against HIV-1 Strain 92HT599 in MT2 Cells
MT2 cells were infected with HIV-1 strain 92HT599 (10 TCID 50/30000 cells). The infected cells were plated at the concentration of 30,000 cells per well in 96 well plate. Test compound was added to the micro plate in defined format with the final concentration of DMSO (vehicle) is not more than 1%. Incubation was carried out in CO2 incubator for ˜96 hours for viral infection. At the end of incubation period an aliquot from each well was taken for p24 estimation. The quantitation of p24 is an index for antiviral activity of the compound. Percent inhibition was calculated with reference to control values (vehicle controls). p24 estimation was carried out using Advance biosciences kit as per the procedure detailed by supplier.

[1] = Human immunodeficiency virus 1, 0% serum binding assay, read-out: IC50 0% serum
[2] = Human immunodeficiency virus 1, 40% serum binding assay, read-out: IC50 40% serum

Row | Structure (SMILES) | pIC50 [1] | pIC50 [2]
1 | CC(C)C1=C2[C@H]3CC[C@@H]4[C@@]5(C)CC[C@H](OC(=O)[C@H]6C[C@@H](C(=O)O)C6(C)C)C(C)(C)[C@@H]5CC[C@@]4(C)[C@]3(C)CC[C@@]2(NC(=O)C(C)(C)NC(=O)c2ccoc2)CC1=O [Example 24, (1R,3S)-3-((((3aR,5aR,5bR,7aR,9S,11aR,11bR,13aS)-3a-(2-(furan-3-carboxamido)-2-methylpropanamido)-1-isopropyl-5a,5b, 8,8,11a-pentamethyl-2-oxo-3,3a,4,5,5a,5b,6,7,7a,8,9,10,11,11a,11b,12,13,13a-octadecahydro-2H-cyclopenta[a]chrysen-9-yl)oxy)carbonyl)-2,2-dimethylcyclobutane-1-carboxylic acid] | > 8.52 | 6.70 to 7.30
2 | CC(C)C1=C2[C@H]3CC[C@@H]4[C@@]5(C)CC[C@H](OC(=O)[C@H]6C[C@@H](C(=O)O)C6(C)C)C(C)(C)[C@@H]5CC[C@@]4(C)[C@]3(C)CC[C@@]2(NC(=O)C(C)(C)NC(=O)c2ccco2)CC1=O [Example 26, (1R,3S)-3-((((3aR,5aR,5bR,7aR,9S,11aR,11bR,13aS)-3a-(2-(furan-2-carboxamido)-2-methylpropanamido)-1-isopropyl-5a,5b,8,8,11a-pentamethyl-2-oxo-3,3a,4,5,5a,5b,6,7,7a,8,9,10,11,11a,11b,12,13,13a-octadecahydro-2H-cyclopenta[a]chrysen-9-yl)oxy)carbonyl)-2,2-dimethylcyclobutane-1-carboxylic acid] | > 8.52 | 6.70 to 7.30
3 | CC(C)C1=C2[C@H]3CC[C@@H]4[C@@]5(C)CC[C@H](OC(=O)[C@H]6C[C@@H](C(=O)O)C6(C)C)C(C)(C)[C@@H]5CC[C@@]4(C)[C@]3(C)CC[C@@]2(NC(=O)C(C)(C)NC(=O)C2(c3ccccc3)CCCC2)CC1=O [Example 27, (1R,3S)-3-((((3aR,5aR,5bR,7aR,9S,11aR,11bR,13aS)-1-isopropyl-5a,5b,8,8,11a-pentamethyl-3a-(2-methyl-2-(1-phenylcyclopentane-1-carboxamido)propanamido)-2-oxo-3,3a,4,5,5a,5b,6,7,7a,8,9,10,11,11a,11b,12,13,13a-octadecahydro-2H-cyclopenta[a]chrysen-9-yl)oxy)carbonyl)-2,2-dimethylcyclobutane-1-carboxylic acid] | 8.00 to 8.52 | 6.70 to 7.30
4 | CC(C)C1=C2[C@H]3CC[C@@H]4[C@@]5(C)CC[C@H](OC(=O)[C@H]6C[C@@H](C(=O)O)C6(C)C)C(C)(C)[C@@H]5CC[C@@]4(C)[C@]3(C)CC[C@@]2(NC(=O)C(C)(C)NC(=O)C2CCNCC2)CC1=O [Example 35, (1R,3S)-3-((((3aR,5aR,5bR,7aR,9S,11aR,11bR,13aS)-1-isopropyl-5a,5b,8,8,11a-pentamethyl-3a-(2-methyl-2-(piperidine-4-carboxamido)propanamido)-2-oxo-3,3a,4,5,5a,5b,6,7,7a,8,9,10,11,11a,11b,12,13,13a-octadecahydro-2H-cyclopenta[a]chrysen-9-yl)oxy)carbonyl)-2,2-dimethylcyclobutane-1-carboxylic acid hydrochloride] | < 8.00 | < 6.70
5 | CC(C)C1=C2[C@H]3CC[C@@H]4[C@@]5(C)CC[C@H](OC(=O)[C@H]6C[C@@H](C(=O)O)C6(C)C)C(C)(C)[C@@H]5CC[C@@]4(C)[C@]3(C)CC[C@@]2(NC(=O)C(C)(C)NC(=O)[C@@H](N)C(C)C)CC1=O [Example 36, (1R,3S)-3-((((3aR,5aR,5bR,7aR,9S,11aR,11bR,13aS)-3a-(2-((S)-2-amino-3-methylbutanamido)-2-methylpropanamido)-1-isopropyl-5a,5b,8,8,11a-pentamethyl-2-oxo-3,3a,4,5,5a,5b,6,7,7a,8,9,10,11,11a,11b,12,13,13a-octadecahydro-2H-cyclopenta[a]chrysen-9-yl)oxy)carbonyl)-2,2-dimethylcyclobutane-1-carboxylic acid hydrochloride] | > 8.52 | 6.70 to 7.30
